One series concerns M14. Put plainly: Antiproliferative activity against human M14 cells measured after 72 hrs by MTS assay. The format is functional, cell-based. Conditions: M14, 72 h. (In general: Tetrazolium dyes change colour on reduction, which living cells bring about.)
The subject of another series is PC-3. Put plainly: Antiproliferative activity against human PC3 cells measured after 72 hrs by MTS assay. It is filed as functional, cell-based. Conditions: PC-3, 72 h.
A short description of series [1]: Antiproliferative activity against human PC3/TxR cells measured after 72 hrs by MTS assay. The format is functional, cell-based.
The subject of another series is DU-145. Put plainly: Antiproliferative activity against human DU145 cells measured after 72 hrs by MTS assay. The format is functional, cell-based. The settings on record: DU-145, 72 h.
A short description of series [2]: Antiproliferative activity against human DU145-TxR cells measured after 72 hrs by MTS assay. The format is functional, cell-based.
Series [3] is described as follows: Antiproliferative activity against human M14/LCC6MDR1 cells measured after 72 hrs by MTS assay. The format is functional, cell-based.
The subject of a further series is MDA-MB-231. The series is described as follows: Antiproliferative activity against human MDA-MB-231 cells measured after 72 hrs by MTS assay. It is filed as functional, cell-based. Conditions: MDA-MB-231, 72 h.
The test system of a further series is MDA-MB-453. Put plainly: Antiproliferative activity against human MDA-MB-453 cells measured after 72 hrs by MTS assay. The format is functional, cell-based. Conditions: MDA-MB-453, 72 h.
Another series has as its system SK-BR-3. Put plainly: Antiproliferative activity against human SK-BR-3 cells measured after 72 hrs by MTS assay. The settings on record: SK-BR-3, 72 h. It is filed as functional, cell-based.
The test system of series [4] is A-375. Put plainly: Antiproliferative activity against human A375 cells measured after 72 hrs by MTS assay. It is filed as functional, cell-based. The settings on record: A-375, 72 h.
The next series deals with RPMI-7951. The series is described as follows: Antiproliferative activity against human RPMI7951 cells measured after 72 hrs by MTS assay. It is filed as functional, cell-based. The settings on record: RPMI-7951, 72 h.
For series [5], the target named is T1, Tubulin (Sus scrofa) (UniProt P02554+P02550). The series is described as follows: Inhibition of porcine brain tubulin polymerization at 10 uM measured at 30 secs interval for 65 mins by spectrophotometric method.
Series [6] in a line: Resistance index, ratio of IC50 for antiproliferative activity against human PC3/TxR cells to IC50 for antiproliferative activity against human PC3 cells. It is filed as functional.
The nature of series [7]: Resistance index, ratio of IC50 for antiproliferative activity against human DU145-TxR cells to IC50 for antiproliferative activity against human DU145 cells. It is filed as functional.
Series [8] can be described thus: Resistance index, ratio of IC50 for antiproliferative activity against human M14/LCC6MDR1 cells to IC50 for antiproliferative activity against human M14 cells. It is filed as functional.
The target in series [9] is T1, Tubulin (Sus scrofa). The series is described as follows: (§1) Inhibition of porcine brain tubulin polymerization measured at 30 secs interval for 65 mins by spectrophotometric method.
The target in series [10] is T2, Tubulin (Sus scrofa, UniProt P02554+P02550). The series is described as §1.
Series [11] addresses T1, Tubulin (Sus scrofa). Put plainly: (§2) Binding affinity to porcine brain tubulin polymerization by surface plasmon analysis analysis. Background: Surface plasmon resonance follows binding to a sensor surface in real time, without labels.
Series [12] addresses T2, Tubulin. The description is as §2.
Series [13] has as its system A-375. Put plainly: Antitumor activity against human A375 cells xenografted in ip dosed NSG mouse assessed as tumor growth inhibition administered 5 times per week for 14 days. The format is functional, organism-based. (In general: A xenograft is tissue or cells of one species grown in another, often human tumour cells in immunodeficient mice.)
Series [14] is described as follows: Toxicity in human A375 cells xenografted NSG mouse assessed as decrease in body weight loss at 10 to 20 mg/kg, ip administered 5 times per week for 14 days measured 3 times a week during compound dosing. It is filed as organism-based. The settings on record: in vivo, 336 h.
Series [15] relates to A-375. The series is described as follows: Antitumor activity against human A375 cells xenografted in NSG mouse assessed as reduction in tumor volume at 10 mg/kg, ip administered 5 times per week for 14 days relative to control. It is filed as functional. Further details: scale not given: the % may be the effect or the level left.
Series [16] concerns A-375. The series is described as follows: Antitumor activity against human A375 cells xenografted in NSG mouse assessed as reduction in tumor weight at 10 mg/kg, ip administered 5 times per week for 14 days relative to control. It is filed as functional. On the set-up: scale not given: the % may be the effect or the level left.
Series [17] relates to A-375. The series is described as follows: Antitumor activity against human A375 cells xenografted in NSG mouse assessed as reduction in tumor volume at 20 mg/kg, ip administered 5 times per week for 14 days relative to control. The format is functional. Further details: scale not given: the % may be the effect or the level left.
Series [18] deals with A-375. The series is described as follows: Antitumor activity against human A375 cells xenografted in NSG mouse assessed as reduction in tumor weight at 20 mg/kg, ip administered 5 times per week for 14 days relative to control. The format is functional. Further details: scale not given: the % may be the effect or the level left.
Series [19] has as its system A-375. Put plainly: Antitumor activity against human A375 cells xenografted in NSG mouse assessed as reduction in tumor size at 10 to 20 mg/kg, ip administered 5 times per week for 14 days by digital caliper method. It is filed as functional, organism-based.
In series [20] the test system is A-375. The series is described as follows: Antitumor activity against human A375 cells xenografted in NSG mouse assessed as tumor necrosis at 10 to 20 mg/kg, ip administered 5 times per week for 14 days measured post-last dose by H and E staining-based microscopic analysis. It is filed as functional, organism-based.
Series [21] concerns A-375. Put plainly: Antitumor activity against human A375 cells xenografted in ip dosed NSG mouse assessed as suppression of tumor growth by measuring decrease in number Ki67 positive cells administered 5 times per week for 14 days measured post-last dose by immunohistochemical analysis. The format is functional, organism-based.
Series [22] concerns A-375. The series is described as follows: Antitumor activity against human A375 cells xenografted in NSG mouse assessed as disruption of tumor vasculature development by measuring decrease in CD31 staining at 10 to 20 mg/kg, ip administered 5 times per week for 14 days measured post-last dose by immunohistochemical analysis. The format is functional, organism-based.
Series [23] relates to A-375. The series is described as follows: Antitumor activity against human A375 cells xenografted in NSG mouse assessed as increase in cleaved PARP level at 10 to 20 mg/kg, ip administered 5 times per week for 14 days measured post-last dose by immunohistochemical analysis. It is filed as functional, organism-based.

A word on the IC50: it is the concentration that inhibits the measured activity by half. A word on the Kd: it is a measure of binding affinity in units of concentration.

Activity calls are given as the source filed them. The calls are words filed in the database; no cut-off is given here.

T1 sequence (P02550 whole entry, looked up): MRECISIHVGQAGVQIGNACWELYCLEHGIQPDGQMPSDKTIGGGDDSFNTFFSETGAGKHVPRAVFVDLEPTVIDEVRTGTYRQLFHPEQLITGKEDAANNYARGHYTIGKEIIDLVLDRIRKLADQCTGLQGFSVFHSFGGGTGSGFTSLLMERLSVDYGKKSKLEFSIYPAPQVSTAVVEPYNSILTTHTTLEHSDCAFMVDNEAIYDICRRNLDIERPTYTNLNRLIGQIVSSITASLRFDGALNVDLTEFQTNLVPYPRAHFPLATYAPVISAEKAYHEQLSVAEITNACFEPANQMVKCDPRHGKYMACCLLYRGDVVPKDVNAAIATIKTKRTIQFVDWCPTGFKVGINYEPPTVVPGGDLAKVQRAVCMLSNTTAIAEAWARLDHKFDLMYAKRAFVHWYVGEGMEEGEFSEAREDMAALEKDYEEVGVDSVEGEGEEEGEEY
T1 sequence (P02554 whole entry, looked up): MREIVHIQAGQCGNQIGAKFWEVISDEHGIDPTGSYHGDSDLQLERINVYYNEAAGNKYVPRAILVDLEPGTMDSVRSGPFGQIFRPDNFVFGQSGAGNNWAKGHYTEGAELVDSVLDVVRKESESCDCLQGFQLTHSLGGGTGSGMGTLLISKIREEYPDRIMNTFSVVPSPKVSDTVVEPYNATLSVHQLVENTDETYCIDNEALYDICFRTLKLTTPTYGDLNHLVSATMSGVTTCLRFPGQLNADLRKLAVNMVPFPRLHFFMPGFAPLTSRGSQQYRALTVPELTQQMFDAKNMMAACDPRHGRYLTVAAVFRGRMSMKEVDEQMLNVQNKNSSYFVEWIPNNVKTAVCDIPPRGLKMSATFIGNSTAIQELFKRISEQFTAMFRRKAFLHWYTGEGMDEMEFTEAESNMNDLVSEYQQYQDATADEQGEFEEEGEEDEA

Consider `COc1cc2c(c(OC)c1OC)-c1ccc(OC)c(=O)cc1[C@@H](NC(C)=O)CC2` [COLCHICINE], for which the IC50 is 9.3 nM in the series on M14; 19 nM in the series with PC-3; 56.3 nM in [1]; 17.3 nM in the series with DU-145; greater than 1000 nM in [2]; 1400 nM in [3].
Turning to `COc1cc(C(=O)c2cccc(-c3ccc(C)cc3)n2)cc(OC)c1OC`, the IC50 in the series with MDA-MB-231 stood at 4.9 nM; with MDA-MB-453 it was 5 nM; in the series with SK-BR-3, 4.8 nM; with A-375 [4] it was 5.9 nM; in the series with M14, 4.9 nM; in the series on RPMI-7951, 7.2 nM. For the same compound, the inhibition result at Tubulin (Sus scrofa) [5] is “Active”.
For the compound `COc1cc(C(=O)c2cccc(-c3ccc(C)c(O)c3)n2)cc(OC)c1OC`, the IC50 with MDA-MB-231 is 1.7 nM; with MDA-MB-453, 1.2 nM; in the series on SK-BR-3, 2.8 nM; in the series with A-375 [4], 1.5 nM; in the series on M14 it was 0.9 to 1.7 nM; in the series with RPMI-7951 it was 1.7 nM. For the same compound, the IC50 was 1.7 nM with PC-3; 2.5 nM in series [1]; 3.7 nM with DU-145; 2.8 nM in series [2]; 1.4 nM in series [3]; 5000 to 10000 nM on Tubulin [10]. Also, the “Ratio IC50” value in [6] is 1.5; in [7], 0.8; in series [8], 1.5. On Tubulin (Sus scrofa) [5], the inhibition entry is “Active”. Also, the inhibition result at Tubulin (Sus scrofa) [9] is “Dose-dependent effect”. For the same compound, the Activity entry was “Dose-dependent effect” at Tubulin (Sus scrofa) [11]; “Non-Toxic” in [14]; 58.54% in the series on A-375 [15]; 48.81% in the series on A-375 [16]; 88.5% in the series with A-375 [17]; 83.33% in the series on A-375 [18]. Besides, the Activity result in the series on A-375 [21] was “Dose-dependent effect”. The Kd at Tubulin [12] worked out at 2660 nM. In the series on A-375 [13], the TGI result is “Dose-dependent effect”. Further, the outcome in the series with A-375 [19], with A-375 [20], in the series with A-375 [22] and in the series on A-375 [23] was Active.
As for `COc1cc(C(=O)c2c[nH]c(-c3ccc(C)cc3)n2)cc(OC)c1OC`, the IC50 in the series with MDA-MB-231 is 25.3 nM; in the series with MDA-MB-453, 11.4 nM; in the series on SK-BR-3, 12.5 nM; with A-375 [4], 18.7 nM; with M14 it was 6.9 nM; in the series with RPMI-7951, 6.4 nM. In addition, at Tubulin (Sus scrofa) [5], the inhibition entry is “Active”.
Take `CC(=O)O[C@H]1C(=O)[C@@]2(C)[C@H]([C@H](OC(=O)c3ccccc3)[C@]3(O)C[C@H](OC(=O)[C@H](O)[C@@H](NC(=O)c4ccccc4)c4ccccc4)C(C)=C1C3(C)C)[C@]1(OC(C)=O)CO[C@@H]1C[C@@H]2O` [PACLITAXEL]: the IC50 in the series on PC-3 is 1.9 nM; in [1], 148 nM; in series [2], greater than 1000 nM; in [3] it was 200 nM.
Regarding `COc1cc(C(=O)c2cccc(-c3ccc(C(F)(F)F)cc3)n2)cc(OC)c1OC`, the IC50 in the series with MDA-MB-231 was 23.6 nM; in the series on MDA-MB-453, 7.9 nM; in the series with SK-BR-3 it was 7 nM; with A-375 [4], 19.8 nM; with M14, 21.4 nM; with RPMI-7951, 19.6 nM.
For the compound `COc1cc(C(=O)c2cnc(-c3c[nH]c4ccccc34)[nH]2)cc(OC)c1OC` [SABIZABULIN], the IC50 amounted to 8.2 nM in the series with MDA-MB-231; 13.6 nM in the series on MDA-MB-453; 13.3 nM with SK-BR-3; 10.4 nM with A-375 [4]; 8.9 nM with M14; 8.8 nM with RPMI-7951.
For the compound `COc1cc(C(=O)c2cccc(-c3c[nH]c4ccccc34)n2)cc(OC)c1OC`, the IC50 is 23.8 nM with MDA-MB-231; 8.5 nM in the series on MDA-MB-453; 19.7 nM with SK-BR-3; 19.2 nM in the series on A-375 [4]; 17.8 nM in the series on M14; 19.5 nM in the series on RPMI-7951.
Consider `COc1cc(C(=O)c2cccc(-c3cccc4[nH]ccc34)n2)cc(OC)c1OC`, for which the IC50 in the series on MDA-MB-231 was 17.9 nM; with MDA-MB-453 it was 16 nM; in the series on SK-BR-3, 19 nM; with A-375 [4] it was 9.3 nM; in the series with M14 it was 12.2 nM; in the series on RPMI-7951, 6.5 nM.
Turning to `COc1cc(C(=O)c2cccc(-c3ccc(C)c(N)c3)n2)cc(OC)c1OC`, the IC50 in the series on MDA-MB-231 stood at 2.8 nM; in the series on MDA-MB-453, 2.9 nM; in the series with SK-BR-3, 1.6 nM; in the series with A-375 [4], 3 nM; in the series on M14, 3 nM; with RPMI-7951, 2 nM.
For the compound `COc1cc(C(=O)c2cccc(-c3ccc(C(C)=O)cc3)n2)cc(OC)c1OC`, the 50% inhibitory concentration (IC50) in the series with MDA-MB-231 is 104 nM; in the series with MDA-MB-453, 19.1 nM; with SK-BR-3, 18.8 nM; in the series on A-375 [4], 24 nM; in the series on M14, 22.5 nM; in the series with RPMI-7951, 40.5 nM.
`COc1cc(C(=O)c2cc(O)cc(-c3ccc(C)cc3)n2)cc(OC)c1OC`: the IC50 with MDA-MB-231, with MDA-MB-453, with SK-BR-3, with A-375 [4], in the series with M14 and in the series with RPMI-7951 was greater than 1000 nM throughout.
With `COc1cc(C(=O)c2cccc(-c3cncnc3)n2)cc(OC)c1OC`, the IC50 in the series with MDA-MB-231, in the series with MDA-MB-453, with SK-BR-3, in the series with A-375 [4], with M14 and with RPMI-7951 was greater than 1000 nM throughout.
For the compound `COc1cc(C(=O)c2cccc(-c3cncc4ccccc34)n2)cc(OC)c1OC`, the IC50 in the series with MDA-MB-231, in the series with MDA-MB-453, in the series with SK-BR-3, in the series on A-375 [4], with M14 and with RPMI-7951 was greater than 1000 nM in each case.
Turning to `COc1cc(C(=O)/C=C/c2cccc(-c3ccc(C)c(O)c3)n2)cc(OC)c1OC`, the IC50 with MDA-MB-231, with MDA-MB-453, with SK-BR-3, in the series on A-375 [4], in the series with M14 and in the series on RPMI-7951 was greater than 1000 nM in each case.
